Assay results as given in paper PMC9424906 (Frontiers in Pharmacology, 2022).
In brackets after ≈: the same amount, converted by molar mass.

Tests used:
BCRP = target: T1, BCRP (Homo sapiens, UniProt Q9UNQ0); experiment: Bidirectional transport in MDCK-BCRP monolayers; assay type: in vitro ADME; conditions: dog, MDCK-BCRP, 5 µM
T1 construct: host or cells: MDCK (BCRP-MDCK)
T1 sequence (Q9UNQ0 1-655): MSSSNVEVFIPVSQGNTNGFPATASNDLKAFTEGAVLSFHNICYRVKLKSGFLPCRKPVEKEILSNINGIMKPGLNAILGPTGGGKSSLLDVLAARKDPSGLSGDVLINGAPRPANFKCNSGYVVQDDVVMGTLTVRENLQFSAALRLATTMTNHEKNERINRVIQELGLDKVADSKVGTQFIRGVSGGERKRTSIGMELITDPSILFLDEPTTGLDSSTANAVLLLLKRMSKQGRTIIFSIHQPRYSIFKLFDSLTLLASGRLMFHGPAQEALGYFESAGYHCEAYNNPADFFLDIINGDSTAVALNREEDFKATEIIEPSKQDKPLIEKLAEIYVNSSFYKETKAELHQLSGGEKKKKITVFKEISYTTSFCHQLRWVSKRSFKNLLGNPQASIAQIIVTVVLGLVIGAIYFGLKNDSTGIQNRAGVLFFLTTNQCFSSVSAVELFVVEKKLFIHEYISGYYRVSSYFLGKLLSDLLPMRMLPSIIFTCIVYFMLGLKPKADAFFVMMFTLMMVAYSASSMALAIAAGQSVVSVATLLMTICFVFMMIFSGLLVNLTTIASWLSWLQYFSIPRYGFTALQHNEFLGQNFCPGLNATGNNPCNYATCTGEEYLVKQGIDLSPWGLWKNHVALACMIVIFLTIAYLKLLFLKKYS
Protocol: Caco-2 (American Type Culture Collection), MDR1-MDCK (NIH), and BCRP-MDCK (transfected by Absorption Systems) cell monolayers were grown to confluence on collagen-coated, microporous membranes in 12-well assay plates. Caco-2 cells were cultured for 27 days, MDCK-MDR1 and MDCK-BCRP cells were cultured for 8 days prior to experiments. […] The experiment was carried out in Hanks’ balanced salt solution (HBSS) containing 10 mM HEPES and 15 mM glucose at pH 7.4. HBSS in the receiver chamber also contained 1% bovine serum albumin. Cells were first pre-incubated for 0.5 h in HBSS with or without the specific inhibitor (1 µM valspodar or 0.5 µM Ko143 for MDR1 and BCRP, respectively). […] Cell monolayers were dosed on the apical side (A to B) or basolateral side (B to A) and incubated at 37°C with 5% CO2 in a humidified incubator. Samples were taken from the donor and receiver chambers at 2 h. Each experiment was performed in duplicate. All samples were assayed by LC-MS/MS. The apparent permeability (Papp) and percent recovery were calculated as described previously ([Katoh et al., 2006]; [Xia et al., 2006]; [Li et al., 2008]).

[1] = 7-days dose range finding study in dogs; conditions: oral, 2000 mg/kg/day
[2] = Liver microsomal stability, CD-1 mouse; assay type: in vitro ADME; conditions: liver microsomes, pH 7.4, 0.5 mg/mL
Protocol: Samples were analyzed using UPLC-MS/MS.

[3] = parameters: species or system human
Protocol: Allometric methods were used to predict human plasma clearance and volume of distribution ([Mahmood and Balian, 1996]; [Sharma and McNeill, 2009]). Human PK prediction was carried out with GastroPlus, version 9.6 (SimulationsPlus, Lancaster, CA)
To predict human exposures after oral administration, human PK parameters were estimated using allometric scaling and human PK profile was simulated using GastroPlus. The allometric scaling was performed as previously described ([Mahmood and Balian, 1996]).

OATP1B1 = conditions: cited from earlier work
MDR1 [4] = experiment: in vitro; conditions: dog, MDCK-MDR1, 5 µM; for Papp A→B at 2 h, 5 µM: MDCK-MDR1, pH 7.4, Papp A to B; for Papp B→A at 2 h, 5 µM: MDCK-MDR1, pH 7.4, Papp B to A
CNT3 = target: T2, CNT3 (Homo sapiens, UniProt Q9HAS3); experiment: Nucleoside transporter uptake, CNT3-transfected MDCK cells; assay type: in vitro ADME
T2 construct: expressed in transfected cells; host or cells: MDCK-II
T2 sequence (Q9HAS3 whole entry): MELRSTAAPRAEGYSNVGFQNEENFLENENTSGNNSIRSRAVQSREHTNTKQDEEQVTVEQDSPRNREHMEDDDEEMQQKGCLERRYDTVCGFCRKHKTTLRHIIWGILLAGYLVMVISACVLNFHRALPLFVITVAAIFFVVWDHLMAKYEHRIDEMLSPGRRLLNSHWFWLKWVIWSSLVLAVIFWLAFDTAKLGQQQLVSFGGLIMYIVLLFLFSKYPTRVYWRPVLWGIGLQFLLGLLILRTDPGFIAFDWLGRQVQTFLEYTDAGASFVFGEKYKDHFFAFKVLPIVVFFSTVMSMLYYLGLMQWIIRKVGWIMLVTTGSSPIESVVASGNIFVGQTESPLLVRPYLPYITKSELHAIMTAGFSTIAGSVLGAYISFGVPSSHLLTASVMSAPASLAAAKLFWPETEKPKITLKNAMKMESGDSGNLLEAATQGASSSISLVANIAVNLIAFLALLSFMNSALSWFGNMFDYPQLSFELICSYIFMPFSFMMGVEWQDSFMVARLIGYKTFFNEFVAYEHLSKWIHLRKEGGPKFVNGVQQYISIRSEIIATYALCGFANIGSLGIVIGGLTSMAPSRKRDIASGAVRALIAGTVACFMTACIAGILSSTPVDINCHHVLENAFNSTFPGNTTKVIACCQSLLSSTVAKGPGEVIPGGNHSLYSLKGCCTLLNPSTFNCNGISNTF
Source text: Each condition was run in triplicate.

[5] = Pharmacokinetics in Cynomolgus monkeys; assay type: in vivo; conditions: male, cynomolgus monkey
Protocol: Adult male C57BL/6 mice and Sprague Dawley rats were purchased from Charles River Laboratory (Wilmington, MA). PK studies for mice and rats were conducted at NIH animal facility (Bethesda, MD). In-life dog and monkey PK studies were conducted at Absorption System (San Diego, CA) and Frontage Labs (Concord, OH), respectively. Dogs and monkeys were fasted overnight prior to dose administrations. All experimental procedures were reviewed and approved by the Animal Care and Use Committee (ACUC) of the NIH Division of Veterinary Resources (DVR) or CRO labs for in-life studies.
The dosing volumes were 2 mL/kg for IV and 5 mL/kg for PO. Blood samples were obtained from each monkey up to 48 h after IV and PO administration. Urine samples were collected over 48 h for IV group.
Blood samples from all groups and species were collected in K2EDTA tubes and stored on wet ice pending processing. Blood was centrifuged at 2200 g at 4°C for 10 min to isolate plasma. All samples were stored at -80°C until analysis.
Phoenix WinNonlin, version 8.1 (Certara, St. Louis, MO), was used to perform PK analysis with the non-compartmental approach (Models 200 and 201 for PO and IV datasets). The area under the plasma concentration vs. time curve (AUC) was calculated using the linear trapezoidal method. The terminal rate constant (λ) was obtained from the slope of at least three data points of the apparent terminal phase of the log-linear plasma concentration vs. time curve when available. AUC0–∞ was estimated as the sum of the AUC0–t (where t is the time of the last measurable concentration) and Ct/λ. The apparent terminal half-life (t½) was calculated as 0.693/λ. Bioavailability (F) was calculated using ratios of dose normalized AUC (AUC/Dose) obtained from PO and IV PK studies.

physchem = assay type: physicochemical; conditions: pH 7.4, aqueous buffer, kinetic from dmso stock
Protocol: Kinetic aqueous solubility was determined at NCATS using Pion’s patented µSOL assay as described previously ([Sun et al., 2019]).

MDR1 [6] = conditions: MDCK-MDR1
[7] = pH 7.4, with Ko143 0.5 µM, 0.5 µM Ko143

For N#C[C@@]1(c2ccc3c(N)ncnn23)O[C@H](CO)[C@@H](O)[C@H]1O [GS-441524], the Papp A→B at 2 h, 5 µM (BCRP; [7]) was < 0.198 ×10⁻⁶ cm/s, the Papp B→A at 2 h, 5 µM (BCRP; [7]) was < 0.281 ×10⁻⁶ cm/s and the Papp A→B at 2 h, 5 µM (BCRP; pH 7.4, no inhibitor) was < 0.197 ×10⁻⁶ cm/s. For the same compound, the Papp B→A at 2 h, 5 µM (BCRP; pH 7.4, no inhibitor) was 0.385 ×10⁻⁶ cm/s, the “Tolerability at maximum feasible dose” value [1] was “well tolerated” and the half-life at 1 µM [2] was 1.3 ± 0.05 h. The “Calculated human CLp as share of human hepatic blood flow” value ([3]; allometric scaling) was “approximately 10%”, the “Predicted human CLp” value ([3]; allometric scaling from mouse, rat, monkey, dog) was 2.7 mL/min/kg and the “Predicted human Vdss” value ([3]; human) was 0.6 L/kg. The “Substrate of OATP1B1” value (OATP1B1) was “not a substrate”, the Papp A→B at 2 h, 5 µM (MDR1 [4]; 1 µM Valspodar) was 0.484 ×10⁻⁶ cm/s and the Papp A→B at 2 h, 5 µM (MDR1 [4]; no inhibitor) was 0.158 ×10⁻⁶ cm/s. The Papp B→A at 2 h, 5 µM (MDR1 [4]; 1 µM Valspodar) was 0.468 ×10⁻⁶ cm/s, the Papp B→A at 2 h, 5 µM (MDR1 [4]; no inhibitor) was 0.521 ×10⁻⁶ cm/s and the “Substrate of CNT3” value (CNT3) was “substrate”. For the same compound, the “Inhibition of uptake by reference inhibitor” value (CNT3; CNT3-transfected cells, reference inhibitor adenosine, 30 µM GS-441524) was 98.9%, the Vd ([5]; in vivo, iv, 2 mg/kg) was 1.1 ± 0.04 L/kg and the clearance ([5]; in vivo, iv, 2 mg/kg) was 9.5 ± 1 mL/min/kg. It also gave an AUC(0-inf) ([5]; in vivo, po, 5 mg/kg) of 734 ± 138 ng·h/mL, a Cmax ([5]; in vivo, po, 5 mg/kg) of 59.4 ± 18.1 ng/mL and a Tmax ([5]; in vivo, po, 5 mg/kg) of 2 h. For the same compound, the bioavailability ([5]; in vivo, po, 5 mg/kg) was 8.3 ± 1.6%, the half-life ([5]; plasma, Monkey, PO 5 mg/kg) was 7.7 ± 1.4 h and the solubility kinetic (physchem) was 42 µg/mL (≈ 144 µM). For the same compound, the “Substrate of MDR1” value (MDR1 [6]) was “substrate”.
